Test results published in PubChem BioAssay (NCI).
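Compound exposure: 48 hours, 5 concentrations, 96-well plates. TGI denotes the concentration required for complete inhibition of growth.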

Tests used:
Experiment in all cases: NCI tumour cell line growth inhibition, 48 h
[1] = tested on: DMS 273 small cell lung
[2] = tested on: MALME-3M melanoma
[3] = tested on: HT29 colon
[4] = tested on: HOP-62 NSCLC
[5] = tested on: UACC-62 melanoma
[6] = tested on: SK-MEL-5 melanoma
[7] = tested on: OVCAR-4 ovarian
[8] = tested on: OVCAR-3 ovarian
[9] = tested on: SNB-75 CNS
[10] = tested on: SK-MEL-28 melanoma
[11] = tested on: SN12C renal
[12] = tested on: DMS 114 small cell lung
[13] = tested on: DLD-1 colon
[14] = tested on: TK-10 renal
[15] = tested on: LOX IMVI melanoma
[16] = tested on: K-562 leukemia
[17] = tested on: COLO 205 colon
[18] = tested on: A498 renal
[19] = tested on: SNB-19 CNS
[20] = tested on: KM20L2 colon
[21] = tested on: HCT-15 colon
[22] = tested on: XF 498 CNS
[23] = tested on: HOP-92 NSCLC
[24] = tested on: RPMI-8226 leukemia
[25] = tested on: U251 CNS
[26] = tested on: SF-539 CNS
[27] = tested on: RXF 393 renal
[28] = tested on: SF-268 CNS
[29] = tested on: HOP-18 NSCLC
[30] = tested on: CAKI-1 renal
[31] = tested on: M14 melanoma
[32] = tested on: SR leukemia
[33] = tested on: CCRF-CEM leukemia
[34] = tested on: M19-MEL melanoma
[35] = tested on: SF-295 CNS
[36] = tested on: NCI-H460 lung
[37] = tested on: LXFL 529 NSCLC
[38] = tested on: NCI-H522 lung
[39] = tested on: HL-60(TB) leukemia
[40] = tested on: A549 NSCLC
[41] = tested on: UACC-257 melanoma
[42] = tested on: IGROV1 ovarian
[43] = tested on: MOLT-4 leukemia
[44] = tested on: KM12 colon
[45] = tested on: NCI-H226 lung
[46] = tested on: HCT-116 colon
[47] = tested on: OVCAR-8 ovarian
[48] = tested on: SNB-78 CNS
[49] = tested on: EKVX NSCLC
[50] = tested on: 786-0 renal
[51] = tested on: SW-620 colon
[52] = tested on: UO-31 renal
[53] = tested on: ACHN renal

`COc1ccc(/C(=C\c2cc(OC)c(OC)c(OC)c2)C(=O)O)cc1` was tested, and the TGI [1] was over 100 µM, the TGI [2] was over 100 µM and the TGI [3] was over 100 µM. It also gave a TGI [4] of over 100 µM, a TGI [5] of over 100 µM and a TGI [6] of 41.7 µM. For the same compound, the TGI [7] was over 100 µM, the TGI [8] was over 100 µM and the TGI [9] was 75.1 µM. It also gave a TGI [10] of over 100 µM, a TGI [11] of over 100 µM and a TGI [12] of 67.2 µM. For the same compound, the TGI [13] was over 100 µM, the TGI [14] was over 100 µM and the TGI [15] was over 100 µM. For the same compound, the TGI [16] was over 100 µM, the TGI [17] was 35.2 µM and the TGI [18] was 53.3 µM. The TGI [19] was over 100 µM, the TGI [20] was 45 µM and the TGI [21] was over 100 µM. It also gave a TGI [22] of 62.3 µM, a TGI [23] of over 100 µM and a TGI [24] of 84.6 µM. For the same compound, the TGI [25] was over 100 µM, the TGI [26] was 39 µM and the TGI [27] was 39.7 µM. The TGI [28] was over 100 µM, the TGI [29] was over 100 µM and the TGI [30] was over 100 µM. For the same compound, the TGI [31] was over 100 µM, the TGI [32] was over 100 µM and the TGI [33] was over 100 µM. It also gave a TGI [34] of over 100 µM, a TGI [35] of 45.5 µM and a TGI [36] of over 100 µM. For the same compound, the TGI [37] was over 100 µM, the TGI [38] was 47.7 µM and the TGI [39] was 72.3 µM. The TGI [40] was over 100 µM, the TGI [41] was over 100 µM and the TGI [42] was over 100 µM. The TGI [43] was 86.3 µM, the TGI [44] was 85.6 µM and the TGI [45] was 77.4 µM. For the same compound, the TGI [46] was over 100 µM, the TGI [47] was over 100 µM and the TGI [48] was over 100 µM. For the same compound, the TGI [49] was over 100 µM, the TGI [50] was over 100 µM and the TGI [51] was over 100 µM. For the same compound, the TGI [52] was 97.5 µM and the TGI [53] was over 100 µM.
